Patent publication US20110014226A1, “HIGH […] I[…]” (priority 2008, published 2011)

Tests used:
[1] = test system: D5 binding to 5-helix; assay: D5 Competitive Binding Assay (DCBA) high throughput screen with F19 counter-screen; design: species or system HIV-1; conditions: among the compounds listed in Table 2; DCBA primary screen vs F19 counter-screen
From the text: An in vitro binding assay was developed using D5 IgG conjugated to europium cryptate (Eu-D5) and a biotinylated gp41 mimetic molecule that presents the hydrophobic pocket in a stabilized structural context (termed 5-helix (or 5H) peptide). The assay readout is based on a fluorescence resonance energy transfer (FRET) format. Biotin-5-helix binds to a streptavidin-conjugated allophycocyanin (APC) substrate to form a 5H-SA-APC complex. When Eu-D5 binds to the hydrophobic pocket of biotin-5H, it brings the Eu into close proximity with the APC substrate to allow FRET from Eu to APC. When the reaction system is excited at a wavelength of 340 nm, the Eu signals at 620 nm. If the Eu is in close proximity to the APC, it excites the APC which results in long-lived emissions at 665 nm. Introducing a time delay (e.g., ˜100 μseconds) between the system excitation and fluorescence measurement allows the FRET signals to be cleared of non-specific short-lived emissions (“time-resolved FRET”). The resulting specific FRET signal indicative of the amount of Eu-D5 bound to biotin-5H can be quantified by the ratio of fluorescence [counts at 665 nm/fluorescence counts at 620 nm]×10,000. […]
Briefly, the assay was performed in the following manner. […] The plate was then read using the Fusion Universal Microplate Analyzer (Packard Bioscience). […]

[2] = ELISA of mouse antisera after immunization with hapten-CRM197 conjugates, coated with biotinylated Compound 2.45; format: in vivo; conditions: balb/c mice, 25 μg conjugate intramuscularly three times at 2-week intervals, Merck aluminum alum + IMO-2055; reciprocal endpoint titers by ELISA
[3] = test system: 5-helix; conditions: in vivo; for Post-dose 3 geometric mean antibody titer (GMT) elicited versus 5-helix: mouse
[4] = test system: CRM197; conditions: mouse, in vivo
[5] = ELISA of mouse antisera after immunization, coated with biotinylated Compound 2.58; format: in vivo; conditions: balb/c mice, 25 μg conjugate intramuscularly three times at 2-week intervals, Merck aluminum alum + IMO-2055; reciprocal endpoint titers by ELISA
[6] = test system: ccIZN36; assay: ELISA of mouse antisera after immunization, coated with ccIZN36; format: in vivo; conditions: balb/c mice, 25 μg conjugate intramuscularly three times at 2-week intervals, Merck aluminum alum + IMO-2055; reciprocal endpoint titers by ELISA
[7] = test system: ccIZN17; assay: ELISA of mouse antisera after immunization, coated with ccIZN17; format: in vivo; conditions: balb/c mice, 25 μg conjugate intramuscularly three times at 2-week intervals, Merck aluminum alum + IMO-2055; reciprocal endpoint titers by ELISA

SMILES | specific inhibition of D5 binding relative to F19 inhibition [1] | Post-dose 3 geometric mean antibody titer (GMT) elicited versus Compound 2.45 [2] | binding activity of individual mouse sera in the 5H ELISA [3] | Post-dose 3 geometric mean antibody titer (GMT) elicited versus 5-helix [3] | Post-dose 3 geometric mean antibody titer (GMT) elicited versus CRM197 [4] | Post-dose 3 geometric mean antibody titer (GMT) elicited versus Compound 2.58 [5] | Post-dose 3 geometric mean antibody titer (GMT) elicited versus ccIZN36 [6] | Post-dose 3 geometric mean antibody titer (GMT) elicited versus ccIZN17 [7]
CCNC(=O)[C@]1(Cc2ccccc2)CCCN(C(=O)[C@@H](Cc2ccc3ccccc3c2)NC(=O)N2CC(C)NC(C)C2)C1 (stereo partly drawn) [Compound 1.1] | the best in terms of specific inhibition of D5 binding relative to F19 inhibition |  |  |  |  |  |  | 
CCNC(=O)[C@]1(Cc2ccccc2)CCCN(C(=O)[C@@H](Cc2ccc3ccccc3c2)NC(=O)N2CCNCC2)C1 [Compound 2.45] |  | >1,600,000 | more pronounced binding activity | 400 | 1,600 | >1,600,000 | <100 | <100
CCNC(=O)[C@]1(Cc2ccccc2)CCCN(C(=O)[C@@H](Cc2ccc(Cl)c(Cl)c2)NC(=O)N[C@@H]2CCCNC2)C1 [Compound 2.58] |  | >1,600,000 | more pronounced binding activity | 200 | 400 | 713,155 | <100 | 200
